Source: the supplement of paper PMC10307832

Columns and labels:
Assay in all cases: relative viability (nuclei count vs DMSO), 5 days (fraction); higher = more cells survive
SGI-1776 + Bortezomib = compound: CN1CCC(CNc2ccc3ncc(-c4cccc(OC(F)(F)F)c4)n3n2)CC1 [SGI-1776] + CC(C)C[C@H](NC(=O)[C@H](Cc1ccccc1)NC(=O)c1cnccn1)B(O)O [Bortezomib] (partner 0.002 µM)
Summary of the method: (§1)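 Medians of duplicate plates are given as relative viability. That measure is the nuclei count in treated wells divided by the count in vehicle wells. Counts were taken on 4× images of lung cancer cell lines in 1536-well plates, 5 days after pin-tool dosing the day after seeding with one drug alone or a fixed anchor-drug dose plus five library-drug doses (not always all listed) in √10 steps.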

SGI-1776 + Foretinib = compound: CN1CCC(CNc2ccc3ncc(-c4cccc(OC(F)(F)F)c4)n3n2)CC1 [SGI-1776] + COc1cc2c(Oc3ccc(NC(=O)C4(C(=O)Nc5ccc(F)cc5)CC4)cc3F)ccnc2cc1OCCCN1CCOCC1 [Foretinib] (partner 0.25 µM)
Summary of the method: as §1

[1] = compound: C1COCCN1C2=NC(=NC3=C2OC4=C3C=CC=N4)C5=CC(=CC=C5)NC(=O)C6=CN=C(C=C6)N + Nc1ncn([C@H]2C[C@H](O)[C@@H](CO)O2)c(=O)n1 [Decitabine] (partner 2 µM)
Summary of the method: as §1

| Cell Line | relative viability (SGI-1776 + Bortezomib; first compound 0.08 µM) | relative viability (SGI-1776 + Bortezomib; first compound 0.8 µM) | relative viability (SGI-1776 + Bortezomib; first compound 2.53 µM) | relative viability (SGI-1776 + Bortezomib; first compound 8 µM) | relative viability (SGI-1776 + Foretinib; first compound 0.08 µM) | relative viability (SGI-1776 + Foretinib; first compound 0.8 µM) | relative viability (SGI-1776 + Foretinib; first compound 2.53 µM) | relative viability (SGI-1776 + Foretinib; first compound 8 µM) | relative viability ([1]; first compound 0.02 µM) | relative viability ([1]; first compound 0.06325 µM) | relative viability ([1]; first compound 0.2 µM) | relative viability ([1]; first compound 0.6325 µM) | relative viability ([1]; first compound 2 µM) |
| --- | --- | --- | --- | --- | --- | --- | --- | --- | --- | --- | --- | --- | --- |
| NCI-H647 | 1.24 | 0.964 | 0.888 | 0.837 | 1.22 | 1.24 | 1.18 | 1.15 | 0.524 | 0.478 | 0.527 | 0.519 | 0.325 |
| NCI-H2126 | 1.15 | 1.18 | 1.04 | 1.13 | 1.29 | 1.27 | 1.44 | 1.06 | 0.54 | 0.608 | 0.606 | 0.613 | 0.503 |
| NCI-H727 | 0.888 | 1.13 | 0.855 | 0.724 | 0.988 | 0.971 | 0.926 | 0.671 | 0.884 | 0.851 | 0.785 | 1 | 0.862 |
| NCI-H522 |  |  |  |  |  |  |  |  | 0.633 | 0.798 | 0.694 | 0.563 | 0.645 |
| EMC-BAC-2 | 1.06 | 1.01 | 1.1 | 1.04 | 1.02 | 0.99 | 1.11 | 0.846 | 0.96 | 1.06 | 0.947 | 0.953 | 0.779 |
| NCI-H1437 | 0.587 | 0.525 | 0.536 | 0.352 | 1.23 | 1.29 | 1.37 | 1.17 | 0.574 | 0.646 | 0.615 | 0.696 | 0.458 |
| NCI-H2347 | 1.04 | 0.961 | 1.15 | 0.897 | 0.836 | 0.862 | 0.531 | 0.84 | 0.603 | 0.657 | 0.651 | 0.755 | 0.575 |
| NCI-H1666 | 0.81 | 0.826 | 0.918 | 0.56 | 0.975 | 0.956 | 0.948 | 0.914 | 0.815 | 0.752 | 0.692 | 0.715 | 0.623 |
| NCI-H1993 | 1.21 | 1.14 | 0.967 | 0.803 | 0.819 | 0.761 | 0.688 | 0.695 | 0.549 | 0.293 | 0.531 | 0.547 | 0.57 |
| COR-L23 | 1.13 | 0.937 | 0.971 | 0.846 | 0.976 | 0.92 | 1.02 | 0.931 | 0.478 | 0.502 | 0.469 | 0.602 | 0.389 |
| HCC-44 | 0.942 | 0.908 | 0.98 | 0.895 |  |  |  |  | 0.892 | 0.93 | 1.01 | 0.929 | 0.989 |
| LU99A | 1.3 | 1.15 | 1.53 | 1.03 | 0.868 | 0.8 | 0.784 | 0.41 | 0.864 | 0.745 | 0.937 | 0.806 | 0.445 |
| NCI-H460 | 1.18 | 1.2 | 1.11 | 0.82 | 1.01 | 0.947 | 0.998 | 0.716 | 0.55 | 0.563 | 0.517 | 0.525 | 0.195 |
| NCI-H650 | 0.95 | 0.755 | 0.836 | 0.622 | 1.09 | 1.03 | 1.02 | 0.936 | 0.315 | 0.361 | 0.333 | 0.443 | 0.494 |
| NCI-H1975 | 0.393 | 0.399 | 0.35 | 0.277 | 0.961 | 0.943 | 0.827 | 0.692 | 0.347 | 0.396 | 0.37 | 0.381 | 0.371 |
| NCI-H1355 | 1.2 | 1.24 | 1.24 | 1.03 | 0.953 | 1.02 | 0.958 | 0.919 | 0.377 | 0.374 | 0.372 | 0.43 | 0.418 |
| NCI-H1755 | 0.932 | 0.953 | 0.971 | 0.774 | 0.949 | 0.931 | 0.881 | 0.854 | 0.693 | 0.71 | 0.714 | 0.722 | 0.628 |
| NCI-H2009 | 1.03 | 1.02 | 0.991 | 0.733 | 1.19 | 1.27 | 1.24 | 0.931 | 0.373 | 0.367 | 0.415 | 0.456 | 0.395 |
| LK-2 |  |  |  |  | 1.26 | 1.23 | 1.35 | 0.682 | 0.306 | 0.267 | 0.256 | 0.259 | 0.243 |
| NCI-H358 |  |  |  |  | 0.698 | 0.553 | 0.467 | 0.198 | 0.221 | 0.212 | 0.211 | 0.247 | 0.182 |
| SK-MES-1 |  |  |  |  | 1.06 | 0.762 | 0.857 | 0.648 | 0.407 | 0.491 | 0.408 | 0.643 | 0.356 |
| NCI-H1648 |  |  |  |  |  |  |  |  | 0.41 | 0.481 | 0.456 | 0.509 | 0.52 |
| NCI-H1792 | 0.94 | 0.941 | 0.977 | 1.01 |  |  |  |  | 0.688 | 0.66 | 0.519 | 0.531 | 0.213 |
| NCI-H1703 | 0.328 | 0.407 | 0.272 | 0.131 | 0.403 | 0.322 | 0.291 | 0.282 |  |  |  |  |  |
| EBC-1 | 0.6 | 0.548 | 0.514 | 0.304 | 0.0952 | 0.0955 | 0.127 | 0.0874 |  |  |  |  |  |
| NCI-H1395 |  |  |  |  | 1.05 | 0.975 | 1.01 | 0.857 | 0.719 | 0.672 | 0.75 | 0.788 | 0.849 |
| NCI-H1563 | 0.934 | 0.849 | 0.847 | 0.692 | 0.949 | 0.952 | 0.92 | 0.888 |  |  |  |  |  |
| NCI-H2170 |  |  |  |  | 0.959 | 1 | 1.02 | 0.987 | 0.493 | 0.488 | 0.48 | 0.551 | 0.506 |
| NCI-H1793 |  |  |  |  | 0.953 | 0.597 | 0.5 | 0.184 | 0.445 | 0.514 | 0.457 | 0.602 | 0.407 |
